Measurements from patent publication US5624923A, “Tricyclic diazepine vasopressin antagonists and oxytocin antagonists” (priority 1995, dated 1997).

Columns and labels:
Vasopressin V2 = Vasopressin V2 Antagonist Activity in Conscious Hydrated Rats; type: in vivo, rat; conditions: AVP 0.4 μg/kg i.p.
Description: Vasopressin V2 Antagonist Activity in Conscious Hydrated Rats
Conscious hydrated rats are treated with compounds under study from 0.1 to 100 mg/kg orally or vehicle. Two to four rats are used for each compound. One hour later, arginine vasopressin (AVP, antidiuretic hormore, ADH) dissolved in peanut oil is administered at 0.4 μg/kg intraperitoneally. Two rats in each test would not receive arginine vasopressin but only the vehicle (peanut oil) to serve as water-loading control. Twenty minutes later each rat is given 30 mL/kg of deionized water orally by gavage and is placed individually in a metabolic cage equipped with a funnel and a graduated glass cylinder to collect urine for four hours. Urine volume is measured and osmolality analyzed by use of a Fiske One-Ten osmometer (Fiske Assoc., Norwood, Mass., USA). Urinary sodium, potassium, and chloride are analyzed by use of ion-specific electrodes in a Beckman E3 (Electrolyte 3) Analyzer.

oxytocin receptors = target: T1, oxytocin receptors (Rattus norvegicus, UniProt P70536); test: Oxytocin Receptor Binding; conditions: for IC50: 1.0 nM [3H]oxytocin
T1 construct: The uteri are dissected out, cleaned of fat and connective tissues; from tissue; host or cells: uterus of DES-treated female Sprague-Dawley rats
T1 sequence (P70536 1-388): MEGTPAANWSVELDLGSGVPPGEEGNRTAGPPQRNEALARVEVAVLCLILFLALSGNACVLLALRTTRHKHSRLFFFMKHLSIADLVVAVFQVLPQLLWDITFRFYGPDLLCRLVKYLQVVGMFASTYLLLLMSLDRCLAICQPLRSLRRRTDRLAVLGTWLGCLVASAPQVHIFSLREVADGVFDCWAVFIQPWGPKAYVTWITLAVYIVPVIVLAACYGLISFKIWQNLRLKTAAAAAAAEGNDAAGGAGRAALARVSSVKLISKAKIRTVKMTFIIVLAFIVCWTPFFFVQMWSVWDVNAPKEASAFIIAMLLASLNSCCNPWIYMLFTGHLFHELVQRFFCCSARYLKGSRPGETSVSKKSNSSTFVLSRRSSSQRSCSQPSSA
Description: Oxytocin Receptor Binding
Female Sprague-Dawley rats weighing approximately 200-250 g are injected intramuscularly (i.m.) with 0.3 mg/kg of body weight of diethylstilbestrol (DES). The rats are sacrificed 18 hours later under pentobarbital anesthesia. The uteri are dissected out, cleaned of fat and connective tissues and rinsed in 50 ml of normal saline. The tissue pooled from six rats is homogenized in 50 ml of […] Tris.HCl, containing 0.5 mM dithiothreitol and 1.0 mM EDTA, adjusted to pH 7.4, using a polytron at setting 6 with three passes of 10 sec each. The homogenate is passed through two (2) layers of cheesecloth and the filtrate centrifuged at 1000× g for 10 min. The clear supernatant is removed and recentrifuged at 165,000× g for 30 min. The resulting pellet containing the oxytocin receptors is resuspended in 50.0 mM Tris.HCl containing 5.0 mM MgCl2 at pH 7.4, to give a protein concentration of 2.5 mg/ml of tissue suspension. This preparation is used in subsequent binding assays with [^3 H]Oxytocin.
Binding of 3,5-[^3 H]Oxytocin ([^3 H]OT) to its receptors is done in microtiter plates using [^3 H]OT, at various concentrations, in an assay buffer of 50.0 mM Tris.HCl, pH 7.4 and containing 5.0 mM MgCl2, and a mixture of protease inhibitors: BSA, 0.1 mg; aprotinin, 1.0 mg; 1,10-phenanthroline, 2.0 mg; […], 10.0 mg; and PMSF, 0.3 mg per 100 ml of buffer solution. Non-specific binding is determined in the presence of 1.0 uM unlabeled OT. The binding reaction is terminated after 60 min , at 22° C. by rapid filtration through glass fiber filters using a Brandel® cell harvester (Biomedical Research and Development Laboratories, Inc., Gaithersburg, Md.). Competition experiments are conducted at equilibrium using 1.0 nM [^3 H]OT and varying the concentration of the displacing agents. The concentrations of agent displacing 50% of [^3 H]OT at its sites (IC50) are calculated by a computer assisted LUNDON-2 program (LUNDON SOFTWARE INC., Ohio, USA).

Vasopressin V1 = Vasopressin V1 Antagonist Activity in Conscious Rats (vasopressin vasopressor response); type: in vivo, rat; conditions: 10 mg/kg i.v.
Description: Vasopressin V1 Antagonist Activity in Conscious Rats
Conscious rats are restrained in a supine position with elastic tape. The area at the base of the tail is locally anesthetized by subcutaneous infiltration with 2% procaine (0.2 ml). Using aseptic technique the ventral caudal tail artery is isolated and a cannula made of PE 10 and 20 (heat-fused) tubing is passed into the lower abdominal aorta. The cannula is secured, heparinized (1000 i.u./cc), sealed and the wound closed with one or two stitches of Dexon 4-0. The caudal vein is also cannulated in the same manner for intravenous drug administration. The duration of the surgery is approximately 5 minutes. Additional local anesthesia (2% procaine or lidocaine) is provided as needed.
The animals are placed in plastic restraining cages in an upright position. The cannula is attached to a Statham P23Db pressure transducer and pulsatile blood pressure is recorded. […] The vasopressin injections are repeated 30,60,90,120,180,240 and 300 min. later. Percentage of antagonism by the compound is calculated using the pre-drug vasopressin vasopressor response as 100%.

Row | Compound | IC50 (oxytocin receptors) [µM] | inhibition at 10 µM (oxytocin receptors; dose 10 μM, [3H]oxytocin) [%] | other results
1 | N-[4-(4H-Pyrazolo[5,1-c][1,4]benzo-diazepin-5(10H)-ylcarbonyl)phenyl]-2-methoxybenzeneacetamide [Example 215] | 0.57 | – | Osmolality (Vasopressin V2; 30 mg/kg orally): 1520 mOsm/kg; Urine Volume (Vasopressin V2; 30 mg/kg orally): 0.7 ml/4 hrs; % Inhibition at 10 μM (oxytocin receptors; dose 10 μM, [3H]oxytocin): 74%
2 | CCOC(=O)c1ccc2n1Cc1ccccc1N(C(=O)c1ccc([N+](=O)[O-])c(C)c1)C2 [Example 444, ethyl 10,11-dihydro-10-(3-methyl-4-nitrobenzoyl)-5H-pyrrolo[2,1-c][1,4]-benzodiazepine-3-carboxylate] | – | 21 | –
3 | Cc1ccccc1C(=O)Nc1ccc(C(=O)O)c(Cl)c1 [Example 430, 4-[(2-methylbenzoyl)amino]-2-chloro-benzoic acid] | – | 16 | –
4 | Cc1c(F)cccc1C(=O)Nc1ccc(C(=O)O)cc1Cl [Example 435, 4-[(3-fluoro-2-methylbenzoyl)amino]-3-chlorobenzoic acid] | – | 10 | –
5 | Cc1cc(C(=O)O)cc(C)c1NC(=O)c1ccc(Cl)cc1Cl [Example 432, 4-[(2,4-dichlorobenzoyl)amino]-3,5-dimethylbenzoic acid] | – | 19 | –
6 | Cc1ccccc1C(=O)Nc1ccc(C(=O)O)cc1Cl [Example 433, 4-[(2-methylbenzoyl)amino]-3-chloro-benzoic acid] | – | 12 | –
7 | O=C(Nc1ccc(C(=O)O)c(Cl)c1)c1cccc(F)c1 [Example 441, 4-[[3-fluorobenzoyl]amino]-2-chloro-benzoic acid] | – | – | inhibition at 1 µM (oxytocin receptors; dose 1 μM, [3H]oxytocin): 22%
8 | Cc1c(F)cccc1C(=O)Nc1ccc(C(=O)O)cc1 [Example 418, 4-[(3-fluoro-2-methylbenzoyl)amino]-benzoic acid] | – | 39 | –
9 | Nc1ccc(C(=O)N2Cc3cccn3Cc3ccccc32)c(Cl)c1 [Example 416, 10,11-Dihydro-10-(2-chloro-4-aminobenzoyl)-5H-pyrrolo[2,1-c][1,4]benzodiazepine] | 7.4 | 44.6 | –
10 | O=C(O)c1ccc(NC(=O)c2ccc(Cl)cc2Cl)cc1Cl [Example 429, 4-[(2,4-Dichlorobenzoyl)amino]-2-chlorobenzoic acid] | – | 11 | –

The next lines start with results.

Row | IC50 (oxytocin receptors) [µM] | inhibition at 10 µM (oxytocin receptors; dose 10 μM, [3H]oxytocin) [%] | Compound | other results
11 | – | 36 | O=C(c1ccc([N+](=O)[O-])cc1Cl)N1Cc2ccc(C(=O)C(F)(F)F)n2Cc2ccccc21 [Example 452, 10,11-dihydro-10-(2-chloro-4-nitro-benzoyl)[3-(trifluoroacetyl)]-5H-pyrrolo[2,1-c][1,4]benzodiazepine] | –
12 | – | 14 | O=C(c1ccc([N+](=O)[O-])cc1)N1Cc2ccc(C(=O)C(Cl)(Cl)Cl)n2Cc2ccccc21 [Example 449, 10,11-dihydro-10-(4-nitrobenzoyl)-[3-(trichloroacetyl)]-5H-pyrazolo[2,1-c]-[1,4]benzodiazepine] | –
13 | 4 | 86 | CCOC(=O)c1ccc2n1Cc1ccccc1N(C(=O)c1ccc(NC(=O)c3ccc(Cl)cc3Cl)cc1)C2 [Example 596, Ethyl 10-[4-[(2,4-dichlorobenzoyl)amino]benzoyl]-10,11-dihydro-5H-pyrrolo[2,1-c][1,4]benzodiazepine-3-carboxylate] | Osmolality (Vasopressin V2; 10 mg/kg orally): 1347 mOsm/kg; Urine Volume (Vasopressin V2; 10 mg/kg orally): 2.8 ml/4 hrs
14 | – | 14 | Nc1ccc(C(=O)N2Cc3ccc(C(=O)C(F)(F)F)n3Cc3ccccc32)cc1 [Example 462, 10,11-dihydro-10-(4-aminobenzoyl)[3-(trifluoroacetyl)]-5H-pyrrolo[2,1-c]-[1,4]benzodiazepine] | –
15 | 3.1 | 77 | COc1cc(C(=O)N2Cc3cccn3Cc3ccccc32)ccc1N [Example 460, 10,11-Dihydro-10-(4-amino-3-methoxybenzoyl)-5H-pyrrolo[2,1-c][1,4]benzodiazepine] | –
16 | 0.033 | 93 | Cc1ccc(F)cc1C(=O)Nc1ccc(C(=O)N2Cc3cccn3Cc3ccccc32)cc1 [Example 465, N-[4-(5H-Pyrrolo[2,1-c][1,4]benzodiazepin-10(11H)-ylcarbonyl)phenyl]-5-fluoro-2-methylbenzamide] | Osmolality (Vasopressin V2; 10 mg/kg orally): 361 mOsm/kg; Urine Volume (Vasopressin V2; 10 mg/kg orally): 21.8 ml/4 hrs; Max. % Inhibition (Vasopressin V1): 85%; Time (of max. % inhibition) (Vasopressin V1): 90 min
